# In the NIST ThermoML archive (doi:10.1016/j.jct.2005.08.015):
# ± gives the expanded uncertainty stated by the source.
# Experiment: of the first substance listed, at infinite dilution; xn = mol fraction of the nth substance listed
# Settings: Liquid, vibrating tube densimetry, x1 = 0
smiles,measurement,setting,value
OCC(O)CO [glycerol] + O,partial molar volume,"298.21 K, 640 kPa",7.093e-05 ± 8e-08 m3/mol
same,partial molar volume,"298.21 K, 29800 kPa",7.103e-05 ± 8e-08 m3/mol
same,partial molar volume,"298.22 K, 15170 kPa",7.097e-05 ± 8e-08 m3/mol
same,partial molar volume,"318.17 K, 470 kPa",7.205e-05 ± 8e-08 m3/mol
same,partial molar volume,"318.17 K, 14770 kPa",7.195e-05 ± 8e-08 m3/mol
same,partial molar volume,"318.17 K, 30260 kPa",7.194e-05 ± 8e-08 m3/mol
same,partial molar volume,"338.16 K, 440 kPa",7.304e-05 ± 8e-08 m3/mol
same,partial molar volume,"338.16 K, 15150 kPa",7.288e-05 ± 8e-08 m3/mol
same,partial molar volume,"338.16 K, 30360 kPa",7.277e-05 ± 8e-08 m3/mol
same,partial molar volume,"373.13 K, 15180 kPa",7.444e-05 ± 1e-07 m3/mol
same,partial molar volume,"373.13 K, 30110 kPa",7.428e-05 ± 8e-08 m3/mol
same,partial molar volume,"373.14 K, 1980 kPa",7.463e-05 ± 8e-08 m3/mol
same,partial molar volume,"408.15 K, 30120 kPa",7.586e-05 ± 1e-07 m3/mol
same,partial molar volume,"408.16 K, 1830 kPa",7.644e-05 ± 1e-07 m3/mol
same,partial molar volume,"408.16 K, 14970 kPa",7.616e-05 ± 1e-07 m3/mol
same,partial molar volume,"441.99 K, 1850 kPa",7.825e-05 ± 1e-07 m3/mol
same,partial molar volume,"442.03 K, 15670 kPa",7.795e-05 ± 1.2e-07 m3/mol
same,partial molar volume,"442.13 K, 29820 kPa",7.764e-05 ± 1e-07 m3/mol
same,partial molar volume,"473.15 K, 1960 kPa",8e-05 ± 1.2e-07 m3/mol
same,partial molar volume,"473.15 K, 15740 kPa",7.962e-05 ± 1e-07 m3/mol
same,partial molar volume,"473.16 K, 30290 kPa",7.92e-05 ± 1e-07 m3/mol
same,partial molar volume,"498.15 K, 3000 kPa",8.129e-05 ± 1.2e-07 m3/mol
same,partial molar volume,"498.15 K, 30210 kPa",8.047e-05 ± 1.2e-07 m3/mol
same,partial molar volume,"498.16 K, 15930 kPa",8.087e-05 ± 1.2e-07 m3/mol
same,partial molar volume,"523.15 K, 16150 kPa",8.212e-05 ± 1.4e-07 m3/mol
same,partial molar volume,"523.16 K, 5030 kPa",8.238e-05 ± 1.6e-07 m3/mol
same,partial molar volume,"523.16 K, 30280 kPa",8.184e-05 ± 1.4e-07 m3/mol
same,partial molar volume,"548.17 K, 7070 kPa",8.292e-05 ± 1.6e-07 m3/mol
same,partial molar volume,"548.18 K, 18040 kPa",8.309e-05 ± 1.6e-07 m3/mol
same,partial molar volume,"548.18 K, 30570 kPa",8.347e-05 ± 1.4e-07 m3/mol
same,partial molar volume,"573.14 K, 30040 kPa",8.344e-05 ± 1.8e-07 m3/mol
same,partial molar volume,"573.18 K, 10150 kPa",8.171e-05 ± 1.8e-07 m3/mol
same,partial molar volume,"573.19 K, 15080 kPa",8.249e-05 ± 1.8e-07 m3/mol
same,partial molar volume,"573.19 K, 19940 kPa",8.3e-05 ± 1.6e-07 m3/mol
same,partial molar volume,"573.25 K, 24690 kPa",8.32e-05 ± 1.8e-07 m3/mol
"CC(O)CO (stereo unspecified) [1,2-propanediol] + O",partial molar volume,"298.21 K, 640 kPa",7.123e-05 ± 6e-08 m3/mol
same,partial molar volume,"298.22 K, 15160 kPa",7.119e-05 ± 6e-08 m3/mol
same,partial molar volume,"298.22 K, 29790 kPa",7.112e-05 ± 6e-08 m3/mol
same,partial molar volume,"318.17 K, 500 kPa",7.214e-05 ± 6e-08 m3/mol
same,partial molar volume,"318.17 K, 14770 kPa",7.192e-05 ± 6e-08 m3/mol
same,partial molar volume,"318.17 K, 30140 kPa",7.175e-05 ± 4e-08 m3/mol
same,partial molar volume,"338.16 K, 440 kPa",7.321e-05 ± 4e-08 m3/mol
same,partial molar volume,"338.16 K, 15160 kPa",7.291e-05 ± 6e-08 m3/mol
same,partial molar volume,"338.16 K, 30320 kPa",7.263e-05 ± 4e-08 m3/mol
same,partial molar volume,"373.13 K, 15150 kPa",7.509e-05 ± 6e-08 m3/mol
same,partial molar volume,"373.13 K, 29980 kPa",7.46e-05 ± 4e-08 m3/mol
same,partial molar volume,"373.14 K, 2010 kPa",7.548e-05 ± 6e-08 m3/mol
same,partial molar volume,"408.15 K, 29980 kPa",7.718e-05 ± 4e-08 m3/mol
same,partial molar volume,"408.16 K, 1760 kPa",7.843e-05 ± 4e-08 m3/mol
same,partial molar volume,"408.16 K, 15000 kPa",7.781e-05 ± 4e-08 m3/mol
same,partial molar volume,"441.99 K, 1840 kPa",8.185e-05 ± 4e-08 m3/mol
same,partial molar volume,"442.03 K, 15650 kPa",8.093e-05 ± 6e-08 m3/mol
same,partial molar volume,"442.03 K, 29800 kPa",8.01e-05 ± 6e-08 m3/mol
same,partial molar volume,"473.15 K, 1890 kPa",8.576e-05 ± 6e-08 m3/mol
same,partial molar volume,"473.15 K, 15760 kPa",8.445e-05 ± 6e-08 m3/mol
same,partial molar volume,"473.16 K, 30230 kPa",8.325e-05 ± 4e-08 m3/mol
same,partial molar volume,"498.15 K, 2930 kPa",8.947e-05 ± 6e-08 m3/mol
same,partial molar volume,"498.15 K, 15970 kPa",8.777e-05 ± 8e-08 m3/mol
same,partial molar volume,"498.15 K, 30110 kPa",8.627e-05 ± 8e-08 m3/mol
same,partial molar volume,"523.16 K, 4980 kPa",9.38e-05 ± 8e-08 m3/mol
same,partial molar volume,"523.16 K, 16130 kPa",9.172e-05 ± 6e-08 m3/mol
same,partial molar volume,"523.16 K, 30320 kPa",8.966e-05 ± 6e-08 m3/mol
same,partial molar volume,"548.17 K, 7020 kPa",9.914e-05 ± 8e-08 m3/mol
same,partial molar volume,"548.18 K, 18020 kPa",9.621e-05 ± 8e-08 m3/mol
same,partial molar volume,"548.18 K, 30440 kPa",9.367e-05 ± 1e-07 m3/mol
same,partial molar volume,"573.14 K, 30360 kPa",9.86e-05 ± 1e-07 m3/mol
same,partial molar volume,"573.18 K, 10120 kPa",0.000106 ± 8e-08 m3/mol
same,partial molar volume,"573.19 K, 19990 kPa",0.0001018 ± 8e-08 m3/mol
"OCCCO [propan-1,3-diol] + O",partial molar volume,"298.22 K, 640 kPa",7.193e-05 ± 4e-08 m3/mol
same,partial molar volume,"298.22 K, 29780 kPa",7.167e-05 ± 4e-08 m3/mol
same,partial molar volume,"298.23 K, 15160 kPa",7.183e-05 ± 4e-08 m3/mol
same,partial molar volume,"318.17 K, 480 kPa",7.262e-05 ± 4e-08 m3/mol
same,partial molar volume,"318.17 K, 14770 kPa",7.234e-05 ± 4e-08 m3/mol
same,partial molar volume,"318.17 K, 30240 kPa",7.212e-05 ± 4e-08 m3/mol
same,partial molar volume,"338.16 K, 440 kPa",7.345e-05 ± 4e-08 m3/mol
same,partial molar volume,"338.16 K, 15130 kPa",7.315e-05 ± 4e-08 m3/mol
same,partial molar volume,"338.16 K, 30290 kPa",7.289e-05 ± 4e-08 m3/mol
same,partial molar volume,"373.13 K, 30110 kPa",7.451e-05 ± 4e-08 m3/mol
same,partial molar volume,"373.14 K, 15170 kPa",7.496e-05 ± 4e-08 m3/mol
same,partial molar volume,"373.16 K, 1960 kPa",7.536e-05 ± 4e-08 m3/mol
same,partial molar volume,"408.15 K, 14940 kPa",7.727e-05 ± 4e-08 m3/mol
same,partial molar volume,"408.15 K, 30010 kPa",7.668e-05 ± 4e-08 m3/mol
same,partial molar volume,"408.16 K, 1870 kPa",7.783e-05 ± 4e-08 m3/mol
same,partial molar volume,"442.02 K, 1820 kPa",8.074e-05 ± 4e-08 m3/mol
same,partial molar volume,"442.03 K, 15700 kPa",7.994e-05 ± 4e-08 m3/mol
same,partial molar volume,"442.08 K, 29800 kPa",7.924e-05 ± 4e-08 m3/mol
same,partial molar volume,"473.15 K, 1940 kPa",8.402e-05 ± 4e-08 m3/mol
same,partial molar volume,"473.16 K, 15710 kPa",8.291e-05 ± 4e-08 m3/mol
same,partial molar volume,"473.16 K, 30280 kPa",8.188e-05 ± 4e-08 m3/mol
same,partial molar volume,"498.15 K, 15940 kPa",8.561e-05 ± 4e-08 m3/mol
same,partial molar volume,"498.16 K, 2960 kPa",8.701e-05 ± 4e-08 m3/mol
same,partial molar volume,"498.16 K, 30110 kPa",8.438e-05 ± 4e-08 m3/mol
same,partial molar volume,"523.16 K, 5030 kPa",9.047e-05 ± 4e-08 m3/mol
same,partial molar volume,"523.16 K, 16160 kPa",8.885e-05 ± 4e-08 m3/mol
same,partial molar volume,"523.16 K, 30260 kPa",8.723e-05 ± 4e-08 m3/mol
same,partial molar volume,"548.18 K, 7070 kPa",9.443e-05 ± 4e-08 m3/mol
same,partial molar volume,"548.18 K, 18040 kPa",9.233e-05 ± 4e-08 m3/mol
same,partial molar volume,"548.18 K, 30580 kPa",9.05e-05 ± 4e-08 m3/mol
same,partial molar volume,"573.17 K, 30240 kPa",9.414e-05 ± 4e-08 m3/mol
same,partial molar volume,"573.18 K, 10100 kPa",9.925e-05 ± 4e-08 m3/mol
same,partial molar volume,"573.19 K, 19920 kPa",9.645e-05 ± 4e-08 m3/mol
"OCCO [1,2-ethanediol] + O",partial molar volume,"298.21 K, 640 kPa",5.462e-05 ± 6e-08 m3/mol
same,partial molar volume,"298.21 K, 29790 kPa",5.452e-05 ± 4e-08 m3/mol
same,partial molar volume,"298.23 K, 15130 kPa",5.457e-05 ± 6e-08 m3/mol
same,partial molar volume,"318.17 K, 470 kPa",5.548e-05 ± 6e-08 m3/mol
same,partial molar volume,"318.17 K, 14770 kPa",5.53e-05 ± 6e-08 m3/mol
same,partial molar volume,"318.17 K, 30150 kPa",5.516e-05 ± 6e-08 m3/mol
same,partial molar volume,"338.16 K, 440 kPa",5.63e-05 ± 6e-08 m3/mol
same,partial molar volume,"338.16 K, 15150 kPa",5.604e-05 ± 6e-08 m3/mol
same,partial molar volume,"338.16 K, 30360 kPa",5.584e-05 ± 6e-08 m3/mol
same,partial molar volume,"373.12 K, 30010 kPa",5.724e-05 ± 6e-08 m3/mol
same,partial molar volume,"373.14 K, 15170 kPa",5.754e-05 ± 6e-08 m3/mol
same,partial molar volume,"373.15 K, 1960 kPa",5.78e-05 ± 6e-08 m3/mol
same,partial molar volume,"408.15 K, 30070 kPa",5.89e-05 ± 8e-08 m3/mol
same,partial molar volume,"408.16 K, 1760 kPa",5.969e-05 ± 6e-08 m3/mol
same,partial molar volume,"408.16 K, 15000 kPa",5.932e-05 ± 6e-08 m3/mol
same,partial molar volume,"441.98 K, 1950 kPa",6.178e-05 ± 8e-08 m3/mol
same,partial molar volume,"442.03 K, 15670 kPa",6.123e-05 ± 8e-08 m3/mol
same,partial molar volume,"442.04 K, 29810 kPa",6.072e-05 ± 8e-08 m3/mol
same,partial molar volume,"473.15 K, 1900 kPa",6.408e-05 ± 8e-08 m3/mol
same,partial molar volume,"473.15 K, 30250 kPa",6.266e-05 ± 8e-08 m3/mol
same,partial molar volume,"473.16 K, 15750 kPa",6.337e-05 ± 8e-08 m3/mol
same,partial molar volume,"498.15 K, 15970 kPa",6.53e-05 ± 8e-08 m3/mol
same,partial molar volume,"498.15 K, 30110 kPa",6.448e-05 ± 8e-08 m3/mol
same,partial molar volume,"498.16 K, 2930 kPa",6.621e-05 ± 8e-08 m3/mol
same,partial molar volume,"523.16 K, 5030 kPa",6.856e-05 ± 8e-08 m3/mol
same,partial molar volume,"523.16 K, 16160 kPa",6.754e-05 ± 8e-08 m3/mol
same,partial molar volume,"523.16 K, 30260 kPa",6.653e-05 ± 8e-08 m3/mol
same,partial molar volume,"548.17 K, 7030 kPa",7.13e-05 ± 1e-07 m3/mol
same,partial molar volume,"548.18 K, 18020 kPa",6.994e-05 ± 1e-07 m3/mol
same,partial molar volume,"548.18 K, 30300 kPa",6.88e-05 ± 1e-07 m3/mol
same,partial molar volume,"573.14 K, 30090 kPa",7.119e-05 ± 1e-07 m3/mol
same,partial molar volume,"573.18 K, 10040 kPa",7.399e-05 ± 1e-07 m3/mol
same,partial molar volume,"573.19 K, 15080 kPa",7.318e-05 ± 1e-07 m3/mol
same,partial molar volume,"573.19 K, 19910 kPa",7.25e-05 ± 8e-08 m3/mol
same,partial molar volume,"573.23 K, 24730 kPa",7.182e-05 ± 8e-08 m3/mol
